assay: Loss of active agent after storage for 2 months at 45° C. (microcapsule suspension vs control aqueous solution); type: physicochemical; settings: control aqueous solution of the active agent, same weight concentration
Method: The microcapsule suspension thus obtained is stored for 2 months at a temperature of 45° C. After this storage period, the loss of cytochrome C from the suspension and that of a control aqueous solution of cytochrome C having the same weight concentration of 0.25% and which has been stored under the same conditions, are measured.
The microcapsule suspension thus obtained is stored for 2 months at a temperature of 45° C. After this storage period, the loss of chlorophylline from the suspension and that of a control aqueous solution of chlorophylline having the same weight concentration of 0.1%, and which has been stored under the same conditions, are measured.
The microcapsule suspension thus obtained is stored for 2 months at a temperature of 45° C. After this storage period, the loss of ascorbic acid from the suspension and that of a control aqueous solution of ascorbic acid having the same weight concentration of 5% and also a pH of 6, and which has been stored under the same conditions, are measured.

Question: Which “Loss of active agent after storage for 2 months at 45° C., non-encapsulated control” value (“Loss of active agent … non-encapsulated control” for short) does the source give for `O=C1O[C@H]([C@@H](O)CO)C(O)=C1O` [ascorbic acid] here?
Answer: 40%

Question: With chlorophylline as the compound, how does the “Loss of active agent … non-encapsulated control” value read?
Answer: 60%

Question: Which “Loss of active agent … non-encapsulated control” value does the source give for cytochrome C here?
Answer: 60%

— patent publication US6531160B2, “Microcapsules with an aqueous core containing at least one water-soluble cosmetic or dermatological active principle and cosmetic or dermatological compositions containing them” (L′Oreal, priority 2000, dated 2003)
